# Data published in PubChem BioAssay (NCI).
# Values joined by “and” are separate entries in the source; they are usually repeats but may differ in a detail not shown here. Equal entries are not always repeated.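 All cell lines were grown in 96-well plates and treated with compound for 48 hours. GI50 = concentration required for 50% inhibition of growth. The concentration for full growth arrest is given as TGI.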
# Assays:
# Test in all cases: NCI anticancer screen, dose series, 48 h
# OVCAR-4 ovarian = test system: OVCAR-4 ovarian
# K-562 leukemia = test system: K-562 leukemia
# SR leukemia = test system: SR leukemia
# CAKI-1 renal = test system: CAKI-1 renal
# NCI-H23 lung = test system: NCI-H23 lung
# OVCAR-3 ovarian = test system: OVCAR-3 ovarian
# CCRF-CEM leukemia = test system: CCRF-CEM leukemia
# SK-MEL-5 melanoma = test system: SK-MEL-5 melanoma
# HOP-62 NSCLC = test system: HOP-62 NSCLC
# UACC-62 melanoma = test system: UACC-62 melanoma
SMILES,GI50 (OVCAR-4 ovarian),TGI (OVCAR-4 ovarian),GI50 (K-562 leukemia),TGI (K-562 leukemia),GI50 (SR leukemia),GI50 (CAKI-1 renal),TGI (CAKI-1 renal),GI50 (NCI-H23 lung),TGI (NCI-H23 lung),GI50 (OVCAR-3 ovarian),TGI (OVCAR-3 ovarian),GI50 (CCRF-CEM leukemia),TGI (CCRF-CEM leukemia),GI50 (SK-MEL-5 melanoma),TGI (SK-MEL-5 melanoma),GI50 (HOP-62 NSCLC) [µM],TGI (HOP-62 NSCLC),GI50 (UACC-62 melanoma),TGI (UACC-62 melanoma),TGI (SR leukemia)
CCC1(O)C(=O)OCc2c1cc1n(c2=O)Cc2cc3ccc(C=O)cc3nc2-1 (configuration not stated),10.3 µM,50 µM and 23.6 µM,1.39 µM,50 µM and 66 µM,0.0647 µM,1.99 µM,19.2 µM and 8.81 µM,0.816 µM,2.71 µM and 16.7 µM,5.05 µM,30.6 µM and 23.4 µM,0.052 µM,0.37 µM and 1.14 µM,1.57 µM,6.95 µM and 6.23 µM,0.476,14.9 µM and 1.56 µM,0.77 µM,3.44 µM and 3.71 µM,
CCN(CC)CCN1CC(O)=C(c2nc(-c3ccc(Cl)cc3)cs2)C1=N,18.3 µM,> 100 µM,1.42 µM,3.04 µM,1.43 µM,1.98 µM,6.72 µM,7.39 µM,49.9 µM,4.06 µM,20.4 µM,2 µM,4.99 µM,1.63 µM,3.02 µM,1.83,3.99 µM,1.87 µM,3.53 µM,3.7 µM
CCN(CC)CCCC(C)Nc1c(C)cnc2cc(Cl)c(C)cc12 (configuration not stated),10.2 µM,35.7 µM,1.26 µM,8.36 µM,,10 µM,26.6 µM,11.5 µM,23.9 µM,10.1 µM,27.4 µM,8.66 µM,34.8 µM,3.92 µM,13.3 µM,18.2,32.9 µM,3.44 µM,11.1 µM,3.17 µM
CC(=O)OC[C@]12CC[C@H]3[C@@H](C[C@H]4O[C@]45[C@@H](O)C=CC(=O)[C@]35C)[C@@H]1CC[C@@H]2[C@H](C)[C@H]1CC(C)=C(C)C(=O)O1,0.571 µM and 0.331 µM,0.9 µM and 1.06 µM,0.272 µM and 0.201 µM,0.849 µM and 0.979 µM,0.189 µM and 0.187 µM,0.385 µM and 0.266 µM,0.831 µM and 1.08 µM,0.185 µM and 0.324 µM,0.371 µM and 0.858 µM,0.314 µM and 0.176 µM,0.842 µM and 0.548 µM,0.229 µM and 0.112 µM,0.745 µM and 1.82 µM,0.702 µM and 0.664 µM,2.02 µM,1.51,3.52 µM,0.481 µM and 0.479 µM,1.58 µM,0.617 µM and 0.631 µM
NC1=NN(c2ccccc2)C(=O)C1C(=O)CCC(=O)Nc1cccc(C(F)(F)F)c1 (configuration not stated),,> 100 µM,,> 100 µM,,,> 100 µM,,> 100 µM,,> 100 µM,,> 100 µM,,> 100 µM,,> 100 µM,,> 100 µM,> 100 µM
COc1ccc(OC)c(/C=C/C(=O)N/N=C/c2ccc(Cl)cc2)c1,1.41 µM,> 100 µM,0.042 µM,> 100 µM,0.0389 µM,0.0786 µM,> 100 µM,0.105 µM,,0.0285 µM,0.0875 µM,0.141 µM,> 100 µM,0.0363 µM,12.6 µM,0.102,> 70.9 µM,0.058 µM,> 100 µM,16.4 µM
CCCCN=C(N)c1ccc(OCCSCCOc2ccc(C(N)=NCCCC)cc2)cc1,3.94 µM,> 100 µM,2.3 µM,> 100 µM,3.13 µM,> 100 µM,> 100 µM,2.87 µM,> 100 µM,4.97 µM,> 100 µM,20.7 µM,> 100 µM,1.28 µM,14.4 µM,12.1,> 100 µM,6.12 µM,> 100 µM,53.7 µM
CCN1C(=O)CNc2ncc(-c3ccc(-c4ncn[nH]4)nc3C)nc21,0.103 µM,1.13 µM,0.358 µM,> 100 µM,0.253 µM,0.0441 µM,0.576 µM,0.238 µM,8.27 µM,0.189 µM,4.49 µM,0.215 µM,> 34.8 µM,0.0864 µM,0.792 µM,0.14,2.46 µM,0.0777 µM,0.587 µM,4.09 µM
COc1ccc(-c2cn3ccsc3n2)cc1,,> 100 µM,,> 100 µM,,,> 100 µM,,> 100 µM,,> 100 µM,,> 100 µM,,> 100 µM,,> 100 µM,,> 100 µM,75.6 µM
COc1ccc2c(c1)C=C([N+](=O)[O-])C(C1OC(C)(C)OC1C1COC(C)(C)O1)O2 (configuration not stated),,21.3 µM,,4.88 µM,,,13.9 µM,,24.2 µM,,21.8 µM,,4.2 µM,,9.17 µM,,37.4 µM,,3.72 µM,6.93 µM
COc1cc(OC(=O)c2c(O)cc(O)c(O)c2C)cc(C)c1C(=O)Oc1cc(C)c(C(=O)O)c(O)c1,,> 100 µM,,> 100 µM,,,> 100 µM,,> 100 µM,,> 100 µM,,> 100 µM,,> 100 µM,,> 100 µM,,> 100 µM,> 100 µM
CC1CN1CC(O)C(O)CN1CC1C (configuration not stated),6.18 µM,> 100 µM,2.02 µM,> 100 µM,0.053 µM,0.229 µM,4.54 µM,2.37 µM,> 75.4 µM,2.52 µM,10.7 µM,1.41 µM,> 100 µM,3.3 µM,14.8 µM,2.89,> 71.9 µM,2.99 µM,> 53.2 µM,> 100 µM
C[N+](C)(C)CC1CCCC(C[N+](C)(C)C)C1=O (configuration not stated),,0.871 µM,,2.58 µM,,,1.48 µM,,5.84 µM,,1.36 µM,,1.28 µM,,10.5 µM,,43.3 µM,,10.9 µM,0.479 µM
